Biological target: T1, hCRTH2 receptor (Homo sapiens, UniProt Q9Y5Y4)
T1 construct: expressed in transfected cells; host or cells: HEK293
T1 sequence (Q9Y5Y4 1-395): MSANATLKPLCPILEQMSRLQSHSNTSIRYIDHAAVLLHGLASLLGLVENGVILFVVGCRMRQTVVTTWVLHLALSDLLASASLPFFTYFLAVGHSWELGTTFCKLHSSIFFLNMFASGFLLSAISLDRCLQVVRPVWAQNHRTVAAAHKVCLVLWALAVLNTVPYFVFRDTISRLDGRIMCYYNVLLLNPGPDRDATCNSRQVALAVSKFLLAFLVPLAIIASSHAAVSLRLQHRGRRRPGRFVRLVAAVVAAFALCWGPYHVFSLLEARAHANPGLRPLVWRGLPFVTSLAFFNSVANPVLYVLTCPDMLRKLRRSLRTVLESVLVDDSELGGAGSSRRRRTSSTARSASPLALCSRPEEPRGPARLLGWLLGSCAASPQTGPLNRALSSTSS
Experiment: Radioligand displacement assay (3H-PGD2) on hCRTH2 receptor membranes
Assay type: binding
Details: antagonistic activity; 3H-PGD2 displacement on HEK293-hCRTH2 membrane fragments

| SMILES | IC50 [nM] |
| --- | --- |
| O=C(O)COc1ccc(Cl)cc1C1c2cccc(F)c2CCN1C(=O)OCCc1ccccc1Cl (racemic) [Example 179, (±)-1-(2-Carboxymethoxy-5-chloro-phenyl)-5-fluoro-3,4-dihydro-1H-isoquinoline-2-carboxylic acid 2-(2-chloro-phenyl)-ethyl ester] | 39.5 |
| CC1(C)CN(C(=O)OCc2ccccc2)C(c2cc(Cl)ccc2OCC(=O)O)c2ccccc21 (racemic) [Example 180, (±)-1-(2-Carboxymethoxy-5-chloro-phenyl)-4,4-dimethyl-3,4-dihydro-1H-isoquinoline-2-carboxylic acid benzyl ester] | 151 |
| CCS(=O)(=O)c1ccc2c(c1)C(c1cc(F)ccc1OCC(=O)O)N(C(=O)OCc1ccccc1)CC2 (racemic) [Example 181] | 572 |
| CS(=O)(=O)c1ccc(OCC(=O)O)c(C2c3ccccc3CCN2C(=O)OCc2ccccc2)c1 (racemic) [Example 182] | 308 |
| O=C(O)COc1ccc(S(=O)(=O)c2ccccc2)cc1C1c2ccccc2CCN1C(=O)OCc1ccccc1 (racemic) [Example 183] | 64 |
| CCS(=O)(=O)c1ccc(OCC(=O)O)c(C2c3ccccc3CCN2C(=O)OCc2ccccc2)c1 (racemic) [Example 184] | 346 |
| CS(=O)(=O)c1cccc2c1CCN(C(=O)OCc1ccccc1)C2c1cc(F)ccc1OCC(=O)O (racemic) [Example 185] | 78.7 |
| O=C(O)COc1ccc(F)cc1C1c2cccc(S(=O)(=O)c3ccccc3)c2CCN1C(=O)OCc1ccccc1 (racemic) [Example 187] | 241 |
| O=C(O)COc1ccc(-c2cncnc2)cc1C1c2ccccc2CCN1C(=O)OCc1ccccc1 (racemic) [Example 188, (±)-1-(2-Carboxymethoxy-5-pyrimidin-5-yl-phenyl)-3,4-dihydro-1H-isoquinoline-2-carboxylic acid benzyl ester] | 89.4 |
| O=C(O)COc1ccc(-c2ccc(F)cc2)cc1C1c2ccccc2CCN1C(=O)OCc1ccccc1 (racemic) [Example 189, (±)-1-(4-Carboxymethoxy-4′-fluoro-biphenyl-3-yl)-3,4-dihydro-1H-isoquinoline-2-carboxylic acid benzyl ester] | 23.3 |
| O=C(O)COc1ccc(F)cc1C1c2ccccc2CCN1C(=O)COCc1cccc(Cl)c1 (racemic) [Example 190] | 16.9 |
| Cc1cccc(COCC(=O)N2CCc3ccccc3C2c2cc(F)ccc2OCC(=O)O)c1 (racemic) [Example 193] | 27.7 |
| COc1ccc(COCC(=O)N2CCc3ccccc3C2c2cc(F)ccc2OCC(=O)O)cc1 (racemic) [Example 196] | 146 |
| COc1ccccc1COCC(=O)N1CCc2ccccc2C1c1cc(F)ccc1OCC(=O)O (racemic) [Example 198, (±)-(4-Fluoro-2-{2-[2-(2-methoxy-benzyloxy)-acetyl]-1,2,3,4-tetrahydro-isoquinolin-1-yl}-phenoxy)-acetic acid] | 19 |

The next lines start with the values.

| IC50 [nM] | SMILES |
| --- | --- |
| 311 | CCS(=O)(=O)c1cccc2c1CCN(C(=O)OCc1ccccc1)C2c1cc(F)ccc1OCC(=O)O (racemic) [Example 186] |
| 33.3 | O=C(O)COc1ccc(F)cc1C1c2ccccc2CCN1C(=O)COCc1ccc(Cl)cc1 (racemic) [Example 191] |
| 11.1 | Cc1ccccc1COCC(=O)N1CCc2ccccc2C1c1cc(F)ccc1OCC(=O)O (racemic) [Example 192] |
| 90.2 | Cc1ccc(COCC(=O)N2CCc3ccccc3C2c2cc(F)ccc2OCC(=O)O)cc1 (racemic) [Example 194] |
| 36.3 | COc1cccc(COCC(=O)N2CCc3ccccc3C2c2cc(F)ccc2OCC(=O)O)c1 (racemic) [Example 195] |
| 323 | Cn1ccc(COCC(=O)N2CCc3ccccc3C2c2cc(F)ccc2OCC(=O)O)n1 (racemic) [Example 197, (±)-(4-Fluoro-2-{2-[2-(1-methyl-1H-pyrazol-3-ylmethoxy)-acetyl]-1,2,3,4-tetrahydro-isoquinolin-1-yl}-phenoxy)-acetic acid] |
| 54 | O=C(O)COc1ccc(F)cc1C1c2ccccc2CCN1C(=O)NCc1ccccc1 (racemic) [Example 199] |

— patent US8575158B2, “1-phenyl-substituted heterocyclyl derivatives and their use as prostaglandin D2 receptor modulators” (Actelion Pharmaceuticals Ltd., priority 2010, dated 2013)
